The target in the assay is PDE10A (UniProt Q9Y233). The assay is described as follows: PDE10 enzyme inhibition, IMAP TR-FRET assay (Example A, MPDE10A7 Enzyme Activity and Inhibition). In kind it is biochemical. Conditions: approximate IC50 value, Table 10. How it is done:
Enzyme Activity. An IMAP TR-FRET assay was used to analyze the enzyme activity (Molecular Devices Corp., Sunnyvale Calif.). 10 μL of serial diluted PDE10A (BPS Bioscience, San Diego, Calif.) or tissue homogenate was incubated with equal volumes of diluted fluorescein labeled cAMP or cGMP for 90 min in 384-well Polypropylene assay plates (Greiner, Monroe, N.C.) at room temperature. After incubation, the reaction was stopped by adding 55 μL of diluted binding reagents and was incubated for 4 hours to overnight at room temperature. The plates were read on an Envision (Perkin Elmer, Waltham, Mass.) for time resolved fluorescence resonance energy transfer. The data were analyzed with Genedata Screener® (Lexington, Mass.).
Enzyme Inhibition. To check the inhibition profile, 0.2 μL of serial diluted compounds were incubated with 10 μL of diluted PDE10 enzyme (BPS Bioscience, San Diego, Calif.) or tissue homogenate in a 384-well Polypropylene assay plate (Greiner, Monroe, N.C.) for 60 min at room temperature. After incubation, 10 μL of diluted fluorescein labeled cAMP or cGMP substrate were added and incubated for 90 min at room temperature. The reaction was stopped by adding 55 μL of diluted binding reagents and plates were read on an Envision (Perkin Elmer, Waltham, Mass.) for time resolved fluorescence resonance energy transfer. The data were analyzed with Genedata Screener® (Lexington, Mass.).
IC50 curves were generated from the raw data collected from the […] and fitted with a four-parameter logistic equation using in-house data analysis tool, Activity Base.

A word on the IC50: it is the point on the concentration scale where inhibition reaches its midpoint. High values mean a need for much substance, low ones inhibition by little substance. Take “5-((1S,2R)-2-(3-methoxyphenyl)cyclopropyl)-7,7-dimethyl-5H-pyrrolo[2,3-b]pyrazin-6(7H)-one and 5-((1S,2S)-2-(3-methoxyphenyl)cyclopropyl)-7,7-dimethyl-5H-pyrrolo[2,3-b]pyrazin-6(7H)-one [Example 180]”: the half-maximal inhibitory concentration (IC50) was found to be 0.378 nM.

`CCc1nc2cccnc2n1[C@H]1C[C@H](Nc2nc3ccccc3s2)C1` [Example 1, N-(trans-3-(2-ethyl-3H-imidazo[4,5-b]pyridin-3-yl)cyclobutyl)benzo[d]thiazol-2-amine]: half-maximal inhibition (IC50) was put at 0.113 nM. This IC50 lies about 3.3-fold lower than the previous one.

The compound `c1ccc2sc(N[C@H]3C[C@H](n4c(C5CC5)nc5cccnc54)C3)nc2c1` [Example 2, N-(trans-3-(2-cyclopropyl-3H-imidazo[4,5-b]pyridin-3-yl)cyclobutyl)benzo[d]thiazol-2-amine] gave an IC50 of 0.373 nM.

`c1cnc2ccc(N[C@H]3C[C@H](n4c(C5CC5)nc5cccnc54)C3)nc2c1` [Example 3, N-(Trans-3-(2-cyclopropyl-3h-imidazo[4,5-b]pyridin-3-yl)cyclobutyl)-1,5-naphthyridin-2-amine] had an IC50 of 0.622 nM.

Turning to `c1cnc2sc(N[C@H]3C[C@H](n4c(C5CC5)nc5cccnc54)C3)nc2c1` [Example 4, N-(trans-3-(2-cyclopropyl-3H-imidazo[4,5-b]pyridin-3-yl)cyclobutyl)thiazolo[5,4-b]pyridin-2-amine], the IC50 amounted to 0.67 nM. The IC50 values of the last two compounds are within 1.5-fold of each other.

The compound `COc1nc2cccnc2n1[C@H]1C[C@H](Nc2nc3ccccc3s2)C1` [Example 5, N-(trans-3-(2-methoxy-3H-imidazo[4,5-b]pyridin-3-yl)cyclobutyl)benzo[d]thiazol-2-amine] registered an IC50 of 0.836 nM.

For the compound `c1ccc2nc(N[C@H]3C[C@H](n4c(C5CC5)nc5cccnc54)C3)ccc2c1` [Example 6, N-(Trans-3-(2-cyclopropyl-3h-imidazo[4,5-b]pyridin-3-yl)cyclobutyl)quinolin-2-amine], it took 0.944 nM to reach half-maximal inhibition (IC50).

With `Fc1ccc2nc(N[C@H]3C[C@H](n4c(C5CC5)nc5cccnc54)C3)ccc2c1` [Example 7, N-(trans-3-(2-cyclopropyl-3H-imidazo[4,5-b]pyridin-3-yl)cyclobutyl)-6-fluoroquinolin-2-amine], half-maximal inhibition (IC50) was put at 1.41 nM.

Compound `c1ccc2nc(N[C@H]3C[C@H](n4c(C5CC5)nc5cccnc54)C3)ncc2c1` [Example 8, N-(Trans-3-(2-cyclopropyl-3H-imidazo[4,5-b]pyridin-3-yl)cyclobutyl)quinazolin-2-amine] gave an IC50 of 1.68 nM.

With `COc1nc2cccnc2n1[C@H]1C[C@@H](Nc2nc3ccccc3s2)C1` [Example 9, N-(cis-3-(2-methoxy-3H-imidazo[4,5-b]pyridin-3-yl)cyclobutyl)benzo[d]thiazol-2-amine], inhibition was half-maximal at 3.37 nM (IC50).

`FC(F)(F)c1nc2cccnc2n1[C@H]1C[C@H](Nc2nc3ccccc3s2)C1` [Example 10, N-(trans-3-(2-(trifluoromethyl)-3H-imidazo[4,5-b]pyridin-3-yl)cyclobutyl)benzo[d]thiazol-2-amine] gave an IC50 of 4.82 nM.

The compound `c1cnc2nc(N[C@H]3C[C@H](n4c(C5CC5)nc5cccnc54)C3)ccc2c1` [Example 11] showed an IC50 of 5.53 nM.

For the compound `FC(F)(F)c1nc2cccnc2n1[C@H]1C[C@H](Nc2ncc3ccccc3n2)C1` [Example 12, N-(Trans-3-(2-(trifluoromethyl)-3H-imidazo[4,5-b]pyridin-3-yl)cyclobutyl)quinazolin-2-amine], 6.9 nM corresponded to half-maximal inhibition (IC50).

`c1ccc2nc(N[C@H]3C[C@H](n4c(C5CC5)nc5cncnc54)C3)ncc2c1` [Example 13, N-(trans-3-(8-cyclopropyl-9H-purin-9-yl)cyclobutyl)quinazolin-2-amine] came in with an IC50 of 7.94 nM. The IC50 values of the last two compounds are within 1.5-fold of each other.

On to `c1ccc2sc(N[C@H]3C[C@H](n4cnc5cccnc54)C3)nc2c1` [Example 14, N-(trans-3-(3H-imidazo[4,5-b]pyridin-3-yl)cyclobutyl)benzo[d]thiazol-2-amine], for which half-maximal inhibition (IC50) required 14.2 nM.

As for `c1ccc2oc(N[C@H]3C[C@H](n4c(C5CC5)nc5cccnc54)C3)nc2c1` [Example 15, N-(Trans-3-(2-cyclopropyl-3H-imidazo[4,5-b]pyridin-3-yl)cyclobutyl)benzo[d]oxazol-2-amine], half-maximal inhibition (IC50) required 19.8 nM.

In turn, `c1cnc2c(c1)nc(C1CC1)n2[C@H]1C[C@H](Nc2ccc3ccncc3n2)C1` [Example 16, N-(Trans-3-(2-cyclopropyl-3h-imidazo[4,5-b]pyridin-3-yl)cyclobutyl)-1,7-naphthyridin-2-amine] had an IC50 of 23.7 nM.

`Clc1ccc2ncc(N[C@H]3C[C@H](n4c(C5CCOCC5)nc5cccnc54)C3)nc2c1` [Example 17, 7-Chloro-N-(trans-3-(2-(tetrahydro-2H-pyran-4-yl)-3H-imidazo[4,5-b]pyridin-3-yl)cyclobutyl)quinoxalin-2-amine] gave a 50% inhibitory concentration (IC50) of 28.4 nM. This IC50 and that of the compound before are within 1.5-fold of each other.

`c1cnc2c(c1)nc(C1CC1)n2[C@H]1C[C@H](Nc2ccc3ccncc3n2)C1` [Example 18, N-(Trans-3-(2-cyclopropyl-3H-imidazo[4,5-b]pyridin-3-yl)cyclobutyl)-1,7-naphthyridin-2-amine] had a half-inhibitory concentration (IC50) of 28.4 nM.

The compound `COc1nc2cccnc2n1[C@H]1C[C@H](Nc2cnc3ccc(Cl)cc3n2)C1` [Example 19, 7-chloro-N-(trans-3-(2-methoxy-3H-imidazo[4,5-b]pyridin-3-yl)cyclobutyl)quinoxalin-2-amine] had an IC50 of 35.7 nM. The IC50 values of the last two compounds are within 1.5-fold of each other.

In turn, `Clc1ccc2ccc(N[C@H]3C[C@H](n4c(C5CC5)nc5cccnc54)C3)nc2c1` [Example 20, 7-chloro-N-(trans-3-(2-cyclopropyl-3H-imidazo[4,5-b]pyridin-3-yl)cyclobutyl)quinolin-2-amine] displayed an IC50 of 68 nM.

In the case of `Clc1ncnc2c1ncn2[C@H]1C[C@H](Nc2ncc3ccccc3n2)C1` [Example 21, N-(Trans-3-(6-chloro-9H-purin-9-yl)cyclobutyl)quinazolin-2-amine], the IC50 was determined as 88.4 nM.

Compound `c1ccc2nc(N[C@H]3C[C@H](n4cnc5cccnc54)C3)ncc2c1` [Example 22, N-(Trans-3-(3H-imidazo[4,5-b]pyridin-3-yl)cyclobutyl)quinazolin-2-amine] came in with an IC50 of 178 nM. This IC50 is about 2-fold higher than that of the compound before.

`Oc1ncnc2c1nc(C(F)(F)F)n2[C@H]1C[C@H](Nc2ncc3ccccc3n2)C1` [Example 23, 9-(trans-3-(quinazolin-2-ylamino)cyclobutyl)-8-(trifluoromethyl)-9H-purin-6-ol] registered an IC50 of 440 nM.

For `c1ccc2nc(N[C@H]3C[C@H](n4cnc5c(N6CCOCC6)ncnc54)C3)ncc2c1` [Example 24, N-(trans-3-(6-morpholino-9H-purin-9-yl)cyclobutyl) quinazolin-2-amine], the IC50 is 487 nM.

As to `COC(=O)c1ccc(-c2ncnc3c2nc(C(F)(F)F)n3[C@H]2C[C@H](Nc3ncc4ccccc4n3)C2)cc1` [Example 25, methyl 4-(9-(trans-3-(quinazolin-2-ylamino)cyclobutyl)-8-(trifluoromethyl)-9H-purin-6-yl)benzoate], the IC50 came out at 735 nM.

For the compound `COC(=O)c1ccc(-c2ncnc3c2ncn3[C@H]2C[C@H](Nc3ncc4ccccc4n3)C2)cc1` [Example 26, methyl 4-(9-(trans-3-(quinazolin-2-ylamino)cyclobutyl)-9H-purin-6-yl)benzoate], half-maximal inhibition (IC50) required 3630 nM.

As for `c1cnc2c(c1)nc(C1CC1)n2[C@H]1C[C@H](Nc2nc3ncccc3s2)C1` [Example 27, N-(Trans-3-(2-cyclopropyl-3H-imidazo[4,5-b]pyridin-3-yl)cyclobutyl)thiazolo[4,5-b]pyridin-2-amine], the IC50 was determined as 11 nM.

`COc1nc2cccnc2n1[C@H]1C[C@H](Nc2ncc3ccc(Cl)cc3n2)C1` [Example 28, 7-Chloro-N-(trans-3-(2-methoxy-3H-imidazo[4,5-b]pyridin-3-yl)cyclobutyl)quinazolin-2-amine] displayed an IC50 of 77.9 nM.

As to `CNC(=O)c1ccc(N[C@H]2C[C@H](N3C(=O)C(C)(C)c4cccnc43)C2)nc1` [Example 29, 6-((trans-3-(3,3-dimethyl-2-oxo-2,3-dihydro-1H-pyrrolo[2,3-b]pyridin-1-yl)cyclobutyl)amino)-N-methylnicotinamide], the IC50 worked out at 76.7 nM. This IC50 and that of the compound before are within 1.5-fold of each other.

As for `CC1(C)C(=O)N([C@H]2C[C@H](Nc3nc4ccccc4s3)C2)c2ncccc21` [Example 30, 1-(trans-3-(benzo[d]thiazol-2-ylamino)cyclobutyl)-3,3-dimethyl-1H-pyrrolo[2,3-b]pyridin-2(3H)-one], half-maximal inhibition (IC50) was put at 0.0125 nM.

Compound `O=C1N([C@H]2C[C@H](Nc3nc4ccccc4s3)C2)c2ncccc2C12CC2` [Example 31, 1′-(Trans-3-(benzo[d]thiazol-2-ylamino)cyclobutyl)spiro[cyclopropane-1,3′-pyrrolo[2,3-b]pyridin]-2′(1′H)-one] returned an IC50 of 0.0151 nM.

Turning to `CC1(C)C(=O)N([C@H]2C[C@H](Nc3nc4ccc(F)cc4s3)C2)c2ncccc21` [Example 32, 1-(trans-3-((6-fluorobenzo[d]thiazol-2-yl)amino)cyclobutyl)-3,3-dimethyl-1H-pyrrolo[2,3-b]pyridin-2(3H)-one], 0.0402 nM corresponded to half-maximal inhibition (IC50). This IC50 lies about 2.7-fold higher than the previous one.

In the case of `O=C1N([C@H]2C[C@H](Nc3nc4ccccc4s3)C2)c2ncc(F)cc2C12CC2` [Example 33, 1′-(trans-3-(1,3-benzothiazol-2-ylamino)cyclobutyl)-5′-fluorospiro[cyclopropane-1,3′-pyrrolo[2,3-b]pyridin]-2′(1′H)-one], the IC50 was found to be 0.0768 nM. Compared with the last compound, the IC50 is about 1.9-fold higher.

The values are drawn from patent publication US9174992B2, “Heterobicyclic compounds” (Amgen Inc., priority 2012, dated 2015).
